Measurements reported in patent US20230115274A1, “COMPOUNDS AND COMPOSITIONS FOR TREATING CONDITIONS ASSOCIATED WITH STING ACTIVITY” (IFM Due, Inc., priority 2019, published 2023).

Target: T1, hSTING (Homo sapiens, UniProt Q86WV6, G230A/H232R/R293Q/R71H)
T1 construct: host or cells: THP1-Dual KO-IFNAR2 cells
Assay: STING reporter assay (luciferase) in THP1-Dual KO-IFNAR2 cells stimulated with 2′3′cGAMP
Assay type: cell-based
Conditions: 2′3′cGAMP 15 μM, 24 h
Method: STING pathway activation by the compounds described herein was measured using THP1-Dual™ cells (KO-IFNAR2).
THP1-Dual™ KO-IFNAR2 Cells (obtained from invivogen) were maintained in RPMI, 10% FCS, 5 ml P/S, 2 mM L-glut, 10 mM Hepes, and 1 mM sodium pyruvate. Compounds were spotted in empty 384 well tissue culture plates (Greiner 781182) by Echo for a final concentration of 0.0017-100 μM. Cells were plated into the TC plates at […], 2×10E6 cells/mL. For activation with STING ligand, 2′3′cGAMP (MW 718.38, obtained from Invivogen), was prepared in Optimem media.
The following solutions were prepared for each 1×384 plate: • Solution A: 2 mL Optimem with one of the following stimuli: • […] • Solution B: 2 mL Optimem with 60 μL Lipofectamine 2000->Incubate 5 min at RT
2 mL of solution A and 2 ml Solution B was mixed and incubated for 20 min at room temperature (RT). 20 uL of transfection solution (A+B) was added on top of the plated cells, with a final 2′3′cGAMP concentration of 15 μM. The plates were then centrifuged immediately at 340 g for 1 minute, after which they were incubated at 37° C., 5% CO2, >98% humidity for 24 h. Luciferase reporter activity was then measured. EC50 values were calculated by using standard methods known in the art.
Luciferase reporter assay: 10 μL of supernatant from the assay was transferred to white 384-plate with flat bottom and squared wells. One pouch of QUANTI-Luc™ Plus was dissolved in 25 mL of water. 100 μL of QLC Stabilizer per 25 mL of QUANTI-Luc™ Plus solution was added. 50 μL of QUANTI-Luc™ Plus/QLC solution per well was then added. Luminescence was measured on a Platereader (e.g., Spectramax I3X (Molecular Devices GF3637001)).
Luciferase reporter activity was then measured. EC50 values were calculated by using standard methods known in the art.

T1 sequence (Q86WV6 whole entry R71H/G230A/H232R/R293Q): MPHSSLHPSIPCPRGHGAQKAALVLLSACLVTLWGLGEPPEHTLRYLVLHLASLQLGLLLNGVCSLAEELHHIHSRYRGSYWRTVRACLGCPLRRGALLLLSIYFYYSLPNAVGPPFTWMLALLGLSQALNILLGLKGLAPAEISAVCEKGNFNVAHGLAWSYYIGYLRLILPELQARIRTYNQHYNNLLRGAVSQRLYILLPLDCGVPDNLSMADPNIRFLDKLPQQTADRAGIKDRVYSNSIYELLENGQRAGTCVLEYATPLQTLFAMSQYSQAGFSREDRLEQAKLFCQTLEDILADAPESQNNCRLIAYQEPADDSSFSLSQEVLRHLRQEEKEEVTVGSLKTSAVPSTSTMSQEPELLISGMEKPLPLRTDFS

EC50 (class symbols)	EC50 (numeric bounds)	SMILES
0.2 to 1 µM		COCCOc1ccc2[nH]cc(NC(=O)Nc3cnc(N4CCC(F)(F)CC4)c(Cl)c3)c2n1 [Compound 218, 1-(5-chloro-6-(4,4-difluoropiperidin-1-yl)pyridin-3-yl)-3-(5-(2-methoxyethoxy)-1H-pyrrolo[3,2-b]pyridin-3-yl)urea]
1 to 5 µM		Cc1cc(NC(=O)Nc2c[nH]c3cccnc23)cnc1N1CCC(F)(F)CC1 [Compound 146, 1-(6-(4,4-difluoropiperidin-1-yl)-5-methylpyridin-3-yl)-3-(1H-pyrrolo[3,2-b]pyridin-3-yl)urea]
5 to 100 µM		CC(C)(C)OC(=O)N1CCC(n2cc(NC(=O)Nc3ccc(C4CCC(F)(F)CC4)nc3)c3cc(F)cnc32)CC1 [Compound 103, tert-butyl 4-(3-(3-(6-(4,4-difluorocyclohexyl)pyridin-3-yl)ureido)-5-fluoro-1H-pyrrolo[2,3-b]pyridin-1-yl)piperidine-1-carboxylate]
0.2 to 1 µM		COc1ccc2[nH]cc(NC(=O)Nc3cnc(C4CCC(F)(F)CC4)c(C)c3)c2n1 [Compound 169, 1-(6-(4,4-difluorocyclohexyl)-5-methylpyridin-3-yl)-3-(5-methoxy-1H-pyrrolo[3,2-b]pyridin-3-yl)urea]
5 to 100 µM		O=C(Nc1ccc(C2CCC(F)(F)CC2)nc1)Nc1c[nH]c2ncc(F)c(Br)c12 [Compound 182, 1-(4-bromo-5-fluoro-1H-pyrrolo[2,3-b]pyridin-3-yl)-3-(6-(4,4-difluorocyclohexyl)pyridin-3-yl)urea]
	> 30 µM	Cn1cc(NC(=O)Nc2ccc(C3CCC(F)(F)CC3)nc2)c2cc(F)cnc21 [Compound 127, 1-(6-(4,4-difluorocyclohexyl)pyridin-3-yl)-3-(5-fluoro-1-methyl-1H-pyrrolo[2,3-b]pyridin-3-yl)urea]
	> 30 µM	Cc1cc(N2CCC(F)(F)CC2)cnc1NC(=O)Nc1c[nH]c2ncc(F)cc12 [Compound 177, 1-(5-(4,4-difluoropiperidin-1-yl)-3-methylpyridin-2-yl)-3-(5-fluoro-1H-pyrrolo[2,3-b]pyridin-3-yl)urea]
1 to 5 µM		Cc1cc(NC(=O)Nc2c[nH]c3c(F)cncc23)cnc1N1CCC(F)(F)CC1 [Compound 172, 1-(6-(4,4-difluoropiperidin-1-yl)-5-methylpyridin-3-yl)-3-(7-fluoro-1H-pyrrolo[3,2-c]pyridin-3-yl)urea]
0.2 to 1 µM		O=C(Nc1ccc(C2CC(F)(F)C2)c(F)c1)Nc1c[nH]c2cccnc12 [Compound 239, 1-(4-(3,3-difluorocyclobutyl)-3-fluorophenyl)-3-(1H-pyrrolo[3,2-b]pyridin-3-yl)urea]
0.2 to 1 µM		COc1cnc2[nH]cc(NC(=O)Nc3cnc(N4CCC(F)(F)CC4)c(F)c3)c2c1 [Compound 184, 1-(6-(4,4-difluoropiperidin-1-yl)-5-fluoropyridin-3-yl)-3-(5-methoxy-1H-pyrrolo[2,3-b]pyridin-3-yl)urea]
5 to 100 µM		O=C(Nc1cnc(N2CC3(CN(CC(F)(F)F)C3)C2)c(Cl)c1)Nc1c[nH]c2cccnc12 [Compound 224, 1-(5-chloro-6-(6-(2,2,2-trifluoroethyl)-2,6-diazaspiro[3.3]heptan-2-yl)pyridin-3-yl)-3-(1H-pyrrolo[3,2-b]pyridin-3-yl)urea]
0.2 to 1 µM		N#Cc1cc(NC(=O)Nc2c[nH]c3ncc(Cl)cc23)cnc1C1CCC(F)(F)CC1 [Compound 151, 1-(5-chloro-1H-pyrrolo[2,3-b]pyridin-3-yl)-3-(5-cyano-6-(4,4-difluorocyclohexyl)pyridin-3-yl)urea]
1 to 5 µM		O=C(Nc1cc(Cl)nc(C2CCC(F)(F)CC2)c1)Nc1c[nH]c2cccnc12 [Compound 217, 1-(2-chloro-6-(4,4-difluorocyclohexyl)pyridin-4-yl)-3-(1H-pyrrolo[3,2-b]pyridin-3-yl)urea]
0.2 to 1 µM		O=C(Nc1cnc(N2CCN(CC(F)(F)F)CC2)c(Cl)c1)Nc1c[nH]c2cccnc12 [Compound 227, 1-(5-chloro-6-(4-(2,2,2-trifluoroethyl)piperazin-1-yl)pyridin-3-yl)-3-(1H-pyrrolo[3,2-b]pyridin-3-yl)urea]
5 to 100 µM		CN(C(=O)OC(C)(C)C)C1CC(n2cc(NC(=O)Nc3ccc(C4CCC(F)(F)CC4)nc3)c3cc(F)cnc32)C1 (stereo not drawn) [Compound 101, tert-butyl (3-(3-(3-(6-(4,4-difluorocyclohexyl)pyridin-3-yl)ureido)-5-fluoro-1H-pyrrolo[2,3-b]pyridin-1-yl)cyclobutyl)(methyl)carbamate]
0.2 to 1 µM		O=C(Nc1cnc(N2CCC(F)(F)CC2)c(Cl)c1)Nc1c[nH]c2cc(F)cnc12 [Compound 145, 1-(5-chloro-6-(4,4-difluoropiperidin-1-yl)pyridin-3-yl)-3-(6-fluoro-1H-pyrrolo[3,2-b]pyridin-3-yl)urea]
0.2 to 1 µM		O=C(Nc1cnc(N2CCC(F)(F)CC2)c(Cl)c1)Nc1c[nH]c2ccc(Cl)nc12 [Compound 144, 1-(5-chloro-1H-pyrrolo[3,2-b]pyridin-3-yl)-3-(5-chloro-6-(4,4-difluoropiperidin-1-yl)pyridin-3-yl)urea]
	> 30 µM	O=C(Nc1ccc(C2CCC(F)(F)CC2)nc1)Nc1cn(C2CCNCC2)c2ncc(F)cc12 [Compound 128, 1-(6-(4,4-difluorocyclohexyl)pyridin-3-yl)-3-(5-fluoro-1-(piperidin-4-yl)-1H-pyrrolo[2,3-b]pyridin-3-yl)urea]
	> 30 µM	CNC1CC(n2cc(NC(=O)Nc3ccc(C4CCC(F)(F)CC4)nc3)c3cc(F)cnc32)C1 (stereo not drawn) [Compound 124, 1-(6-(4,4-difluorocyclohexyl)pyridin-3-yl)-3-(5-fluoro-1-(3-(methylamino)cyclobutyl)-1H-pyrrolo[2,3-b]pyridin-3-yl)urea]
0.2 to 1 µM		O=C(Nc1cnc(N2CCCCC2)c(Cl)c1)Nc1c[nH]c2ncc(F)cc12 [Compound 196, 1-(5-chloro-6-(piperidin-1-yl)pyridin-3-yl)-3-(5-fluoro-1H-pyrrolo[2,3-b]pyridin-3-yl)urea]
0.2 to 1 µM		O=C(Nc1cnc(N2CCC(F)(F)CC2)c(Cl)c1)Nc1c[nH]c2ncccc12 [Compound 189, 1-(5-chloro-6-(4,4-difluoropiperidin-1-yl)pyridin-3-yl)-3-(1H-pyrrolo[2,3-b]pyridin-3-yl)urea]
0.2 to 1 µM		O=C(Nc1cnc(N2CCC(F)(F)CC2)cn1)Nc1c[nH]c2ncc(F)cc12 [Compound 191, 1-(5-(4,4-difluoropiperidin-1-yl)pyrazin-2-yl)-3-(5-fluoro-1H-pyrrolo[2,3-b]pyridin-3-yl)urea]
0.04 to 0.2 µM		O=C(Nc1cnc(N2CCC(F)(F)CC2)c(Cl)c1)Nc1c[nH]c2ccc(Br)nc12 [Compound 236, 1-(5-bromo-1H-pyrrolo[3,2-b]pyridin-3-yl)-3-(5-chloro-6-(4,4-difluoropiperidin-1-yl)pyridin-3-yl)urea]
0.2 to 1 µM		O=C(Nc1cnc(C2CC(F)(F)C2)c(Cl)c1)Nc1c[nH]c2ncc(F)cc12 [Compound 166, 1-(5-chloro-6-(3,3-difluorocyclobutyl)pyridin-3-yl)-3-(5-fluoro-1H-pyrrolo[2,3-b]pyridin-3-yl)urea]
	> 30 µM	Cc1cc(N2CCC(F)(F)CC2)ncc1NC(=O)Nc1c[nH]c2nccc(C)c12 [Compound 179, 1-(6-(4,4-difluoropiperidin-1-yl)-4-methylpyridin-3-yl)-3-(4-methyl-1H-pyrrolo[2,3-b]pyridin-3-yl)urea]
0.2 to 1 µM		O=C(Nc1ccc(C2CC(F)(F)C2)c(Cl)c1)Nc1c[nH]c2cccnc12 [Compound 219, 1-(3-chloro-4-(3,3-difluorocyclobutyl)phenyl)-3-(1H-pyrrolo[3,2-b]pyridin-3-yl)urea]
	> 30 µM	O=C(Nc1ncc(N2CCC(F)(F)CC2)cc1Cl)Nc1c[nH]c2ncc(F)cc12 [Compound 178, 1-(3-chloro-5-(4,4-difluoropiperidin-1-yl)pyridin-2-yl)-3-(5-fluoro-1H-pyrrolo[2,3-b]pyridin-3-yl)urea]
	> 30 µM	O=C(Nc1ccc(C2CCC(F)(F)CC2)nc1)Nc1cn(C2CCCNC2)c2ncc(F)cc12 (stereo not drawn) [Compound 123, 1-(6-(4,4-difluorocyclohexyl)pyridin-3-yl)-3-(5-fluoro-1-(piperidin-3-yl)-1H-pyrrolo[2,3-b]pyridin-3-yl)urea]
	> 30 µM	Cc1cc(NC(=O)Nc2c[nH]c3ncc(F)cc23)cnc1N1CC2(COC2)C1 [Compound 159, 1-(5-fluoro-1H-pyrrolo[2,3-b]pyridin-3-yl)-3-(5-methyl-6-(2-oxa-6-azaspiro[3.3]heptan-6-yl)pyridin-3-yl)urea]
0.2 to 1 µM		O=C(Nc1cnc(N2CCC3(CC2)CC(F)(F)C3)c(Cl)c1)Nc1c[nH]c2cccnc12 [Compound 226, 1-(5-chloro-6-(2,2-difluoro-7-azaspiro[3.5]nonan-7-yl)pyridin-3-yl)-3-(1H-pyrrolo[3,2-b]pyridin-3-yl)urea]
